Test results taken from US20250197408A1, “CRYSTALLINE FORMS AND SALTS OF A PI3K INHIBITOR AND METHODS OF MAKING AND METHODS OF USE THEREOF” (Totus Medicines Inc., priority 2022, published 2025).
In brackets after ≈: the same amount, converted by molar mass.

Columns and labels:
[1] = Solubility in 7 aqueous pH buffers and bio-relevant fluids at 37° C. (HPLC of supernatant; residual solids by XRPD); assay type: physicochemical; settings: for solubility at 2 h / solubility at 24 h: thermodynamic from solid
Procedure: 20 mg of the free base Form A of Compound I was weighed into a 20 mL glass vial. Amounts of the salts equivalent to 20 mg anhydrous free base were weighed into a glass vial. 10 mL of solubility medium was added. The resulting suspensions/solutions were stirred at 37° C. at 400 rpm and sampled at 2 hours and at 24 hours, respectively. The samples were centrifuged at 37° C. at 14,000 rpm for 5 min. Supernatants were analyzed by HPLC and pH meter for solubility and pH value, respectively. Residual solids (wet cakes) from the 24 hours samples were also characterized by XRPD to determine physical form.
Residual solids after the solubility test were analyzed by XRPD.

[2] = Dynamic vapor sorption (DVS) analysis at 25° C.; assay type: physicochemical
Procedure: In one embodiment, the crystalline forms are characterized by Dynamic Vapor Sorption (DVS). The DVS profile is typically expressed by a diagram plotting the sample relative humidity (RH) versus the change in mass (%). The DVS profile provides information on hygroscopicity of the crystalline form at different RH conditions.
A DVS (dynamic vapor sorption) analysis at 25° C. was carried out on Form A** of Compound I benzenesulfonate salt as shown in FIG. 3D.

[3] = ES1, pH 1.2 HCl solution (0.1N), 37° C.
[4] = ES2, pH 4.5 acetate buffer (50 mM), 37° C.
[5] = ES3, pH 6.8 phosphate buffer (50 mM), 37° C.
[6] = ES4, pH 7.4 phosphate buffer (50 mM), 37° C.
[7] = aqueous buffer, ES2, pH 4.5 acetate buffer (50 mM), 37° C.
[8] = aqueous buffer, ES3, pH 6.8 phosphate buffer (50 mM), 37° C.
[9] = aqueous buffer, ES4, pH 7.4 phosphate buffer (50 mM), 37° C.
[10] = simulated gastric fluid, ES1, pH 1.2 HCl solution (0.1N), 37° C.
[11] = simulated gastric fluid, ES5, SGF, pH 2.0, 37° C.

Row | SMILES | Solubility for 2 h [1, 3] [µg/mL] | pH of supernatant, solubility for 2 h (pH) [1, 3] | Solubility for 24 h [1, 3] [µg/mL] | pH of supernatant, solubility for 24 h (pH) [1, 3] | Solubility for 2 h [1, 4] [µg/mL] | pH of supernatant, solubility for 2 h (pH) [1, 4] | Solubility for 24 h [1, 4] [µg/mL] | pH of supernatant, solubility for 24 h (pH) [1, 4] | pH of supernatant, solubility for 2 h (pH) [1, 5] | pH of supernatant, solubility for 24 h (pH) [1, 5] | pH of supernatant, solubility for 2 h (pH) [1, 6] | pH of supernatant, solubility for 24 h (pH) [1, 6] | pH of supernatant, solubility for 2 h (pH) ([1]; ES5, SGF, pH 2.0, 37° C.) | pH of supernatant, solubility for 24 h (pH) ([1]; ES5, SGF, pH 2.0, 37° C.) | pH of supernatant, solubility for 2 h (pH) ([1]; ES6, FaSSIF-v1, pH 6.5, 37° C.) | pH of supernatant, solubility for 24 h (pH) ([1]; ES6, FaSSIF-v1, pH 6.5, 37° C.) | pH of supernatant, solubility for 2 h (pH) ([1]; ES7, FeSSIF-v1, pH 5.0, 37° C.) | pH of supernatant, solubility for 24 h (pH) ([1]; ES7, FeSSIF-v1, pH 5.0, 37° C.) | hygroscopicity / water sorption behavior (DVS) [2] | solid form of the sample after the DVS test [2] | further results
1 | C=CC(=O)NCC(=O)N1CCN(Cc2cc3c(N4CCOCC4)nc(-c4cnc(NC(=O)OC)cc4C(F)(F)F)nn3c2)CC1.O=C(O)/C=C\C(=O)O [Form B* of Compound I maleate salt, Methyl (5-(6-((4-(acryloylglycyl)piperazin-1-yl)methyl)-4-morpholinopyrrolo[2,1-f][1,2,4]triazin-2-yl)-4-(trifluoromethyl)pyridin-2-yl) carbamate maleate salt] | 1400 | (1.3) | 1500 | (1.3) | >2000 | (4.5) | 300 | (4.5) | (6.6) | (6.6) | (7.3) | (7.3) | (2.0) | (2.0) | (6.1) | (6.1) | (5.0) | (5.0) | nearly monotonic water sorption-desorption behavior depending on RH | still Form B* of Compound I maleate salt | Solubility for 2 h [1, 5]: 6.6 µg/mL; Solubility for 24 h [1, 5]: 4.7 µg/mL; Solubility for 2 h [1, 6]: 1.5 µg/mL; Solubility for 24 h [1, 6]: 1.4 µg/mL; Solubility for 2 h ([1]; ES5, SGF, pH 2.0, 37° C.): >2000 µg/mL; Solubility for 24 h ([1]; ES5, SGF, pH 2.0, 37° C.): >2000 µg/mL; Solubility for 2 h ([1]; ES6, FaSSIF-v1, pH 6.5, 37° C.): 22.9 µg/mL; Solubility for 24 h ([1]; ES6, FaSSIF-v1, pH 6.5, 37° C.): 16.2 µg/mL; Solubility for 2 h ([1]; ES7, FeSSIF-v1, pH 5.0, 37° C.): 1100 µg/mL; Solubility for 24 h ([1]; ES7, FeSSIF-v1, pH 5.0, 37° C.): 1000 µg/mL; water uptake (DVS) ([2]; from 40% to 90% RH): 2.7%
2 | C=CC(=O)NCC(=O)N1CCN(Cc2cc3c(N4CCOCC4)nc(-c4cnc(NC(=O)OC)cc4C(F)(F)F)nn3c2)CC1.O=S(=O)(O)c1ccccc1 [Methyl (5-(6-((4-(acryloylglycyl)piperazin-1-yl)methyl)-4-morpholinopyrrolo[2,1-f][1,2,4]triazin-2-yl)-4-(trifluoromethyl)pyridin-2-yl) carbamate benzenesulfonate salt] | 300 | (1.2) | 400 | (1.0) | 200 | (4.5) | 300 | (4.4) | (6.7) | (6.6) | (7.3) | (7.3) | (2.0) | (1.8) | (6.3) | (6.2) | (5.0) | (4.9) | slightly hygroscopic | still the Form A** of Compound I benzenesulfonate salt | solubility compared among forms ([1]; 37° C., 2 h and 24 h, 7 aqueous pH buffers and bio-relevant fluids): overall lower solubility than that of Form A of Compound I; Solubility for 2 h [1, 5]: 8.5 µg/mL; Solubility for 24 h [1, 5]: 6.9 µg/mL; Solubility for 2 h [1, 6]: 5.7 µg/mL; Solubility for 24 h [1, 6]: 4.1 µg/mL; Solubility for 2 h ([1]; ES5, SGF, pH 2.0, 37° C.): 200 µg/mL; Solubility for 24 h ([1]; ES5, SGF, pH 2.0, 37° C.): 300 µg/mL; Solubility for 2 h ([1]; ES6, FaSSIF-v1, pH 6.5, 37° C.): 19.6 µg/mL; Solubility for 24 h ([1]; ES6, FaSSIF-v1, pH 6.5, 37° C.): 18.6 µg/mL; Solubility for 2 h ([1]; ES7, FeSSIF-v1, pH 5.0, 37° C.): 700 µg/mL; Solubility for 24 h ([1]; ES7, FeSSIF-v1, pH 5.0, 37° C.): 800 µg/mL; water uptake (DVS) ([2]; from 40% to 95% RH): about 1.4%
3 | C=CC(=O)NCC(=O)N1CCN(Cc2cc3c(N4CCOCC4)nc(-c4cnc(NC(=O)OC)cc4C(F)(F)F)nn3c2)CC1 [Form A of Compound I, methyl (5-(6-((4-(acryloylglycyl)piperazin-1-yl)methyl)-4-morpholinopyrrolo[2,1-f][1,2,4]triazin-2-yl)-4-(trifluoromethyl)pyridin-2-yl) carbamate] |  | (1.2) |  | (1.0) |  | (4.5) |  | (4.4) | (6.8) | (6.7) | (7.5) | (7.4) | (2.0) | (1.9) | (6.5) | (6.5) | (5.0) | (5.0) | slightly hygroscopic | still the free base Pattern A | solubility at 2 h [1, 7]: 200 µg/mL (≈ 317 µM); solubility at 24 h [1, 7]: 300 µg/mL (≈ 475 µM); solubility at 2 h [1, 8]: 2.9 µg/mL (≈ 4.59 µM); solubility at 24 h [1, 8]: 5.1 µg/mL (≈ 8.07 µM); solubility at 2 h [1, 9]: 2.2 µg/mL (≈ 3.48 µM); solubility at 24 h [1, 9]: 3.8 µg/mL (≈ 6.02 µM); solubility at 2 h [1, 10]: 1200 µg/mL (≈ 1900 µM); solubility at 24 h [1, 10]: 1000 µg/mL (≈ 1580 µM); solubility at 2 h [1, 11]: > 2000 µg/mL; solubility at 24 h [1, 11]: > 2000 µg/mL; solubility at 2 h ([1]; ES6, FaSSIF-v1, pH 6.5, 37° C.): 9.4 µg/mL (≈ 14.9 µM); solubility at 24 h ([1]; ES6, FaSSIF-v1, pH 6.5, 37° C.): 11.5 µg/mL (≈ 18.2 µM); solubility at 2 h ([1]; ES7, FeSSIF-v1, pH 5.0, 37° C.): 600 µg/mL (≈ 950 µM); solubility at 24 h ([1]; ES7, FeSSIF-v1, pH 5.0, 37° C.): 600 µg/mL (≈ 950 µM); water uptake (DVS) ([2]; from 40% to 95% RH): about 1.4%
